# Laboratory results reported in the NIST ThermoML archive (doi:10.1021/je2007378).
# ± gives the expanded uncertainty stated by the source.
# Assays:
# [1] = excess molar enthalpy (molar enthalpy of mixing); xn = mol fraction of the nth substance listed; settings: 298.15 K, 101 kPa, Liquid, Calvet calorimetry
# [2] = 298.15 K; 101.33 kPa; Liquid; Vibrating tube method
smiles,measurement,setting,value
C[Si](C)(C)O[Si](C)(C)O[Si](C)(C)C [octamethyltrisiloxane] + CCCCCCC,excess molar enthalpy,[1]; x1 = 0.5,0.239 ± 0.239 kcal/mol
C[Si]1(C)O[Si](C)(C)O[Si](C)(C)O[Si](C)(C)O1 [octamethylcyclotetrasiloxane] + CCCCCCC,excess molar enthalpy,[1]; x2 = 0.5,0.239 ± 0.239 kcal/mol
C[Si]1(C)O[Si](C)(C)O[Si](C)(C)O[Si](C)(C)O1 [octamethylcyclotetrasiloxane],molar volume,[2],0.0003121 ± 1e-07 m3/mol
C[Si](C)(C)O[Si](C)(C)O[Si](C)(C)O[Si](C)(C)C [decamethyltetrasiloxane],molar volume,[2],0.0003662 ± 7.9e-07 m3/mol
C[Si](C)(C)O[Si](C)(C)O[Si](C)(C)O[Si](C)(C)O[Si](C)(C)C [dodecamethylpentasiloxane] + CCCCCCC,excess molar enthalpy,[1]; x1 = 0.5,0.239 ± 0.239 kcal/mol
C[Si]1(C)O[Si](C)(C)O[Si](C)(C)O[Si](C)(C)O[Si](C)(C)O1 [decamethylcyclopentasiloxane],molar volume,[2],0.0003889 ± 9.1e-07 m3/mol
CCCCCCC [heptane],molar volume,[2],0.0001474 ± 5e-08 m3/mol
C[Si](C)(C)O[Si](C)(C)O[Si](C)(C)O[Si](C)(C)C [decamethyltetrasiloxane] + CCCCCCC,excess molar enthalpy,[1]; x1 = 0.5,0.239 ± 0.239 kcal/mol
C[Si](C)(C)O[Si](C)(C)O[Si](C)(C)O[Si](C)(C)O[Si](C)(C)C [dodecamethylpentasiloxane],molar volume,[2],0.0004424 ± 9.7e-07 m3/mol
C[Si]1(C)O[Si](C)(C)O[Si](C)(C)O[Si](C)(C)O[Si](C)(C)O1 [decamethylcyclopentasiloxane] + CCCCCCC,excess molar enthalpy,[1]; x2 = 0.5,0.239 ± 0.239 kcal/mol
C[Si](C)(C)O[Si](C)(C)O[Si](C)(C)C [octamethyltrisiloxane],molar volume,[2],0.0002903 ± 3e-07 m3/mol
C[Si](C)(C)O[Si](C)(C)C [hexamethyldisiloxane] + CCCCCCC,excess molar enthalpy,[1]; x1 = 0.5,1.2 ± 0.239 kcal/mol
C[Si](C)(C)O[Si](C)(C)C [hexamethyldisiloxane],molar volume,[2],0.000214 ± 6e-08 m3/mol
